Results on one compound are retold here after paper PMC4986129, “A Peroxidase-linked Spectrophotometric Assay for the Detection of Monoamine Oxidase Inhibitors” (Iranian Journal of Pharmaceutical Research : IJPR, 2016).

For orientation: IC50 means the midpoint of a concentration-inhibition curve.

This assay concerns the target T1, MAO-B (Rattus norvegicus, UniProt P19643).
T1 construct: gene Maob
T1 sequence (P19643 2-520): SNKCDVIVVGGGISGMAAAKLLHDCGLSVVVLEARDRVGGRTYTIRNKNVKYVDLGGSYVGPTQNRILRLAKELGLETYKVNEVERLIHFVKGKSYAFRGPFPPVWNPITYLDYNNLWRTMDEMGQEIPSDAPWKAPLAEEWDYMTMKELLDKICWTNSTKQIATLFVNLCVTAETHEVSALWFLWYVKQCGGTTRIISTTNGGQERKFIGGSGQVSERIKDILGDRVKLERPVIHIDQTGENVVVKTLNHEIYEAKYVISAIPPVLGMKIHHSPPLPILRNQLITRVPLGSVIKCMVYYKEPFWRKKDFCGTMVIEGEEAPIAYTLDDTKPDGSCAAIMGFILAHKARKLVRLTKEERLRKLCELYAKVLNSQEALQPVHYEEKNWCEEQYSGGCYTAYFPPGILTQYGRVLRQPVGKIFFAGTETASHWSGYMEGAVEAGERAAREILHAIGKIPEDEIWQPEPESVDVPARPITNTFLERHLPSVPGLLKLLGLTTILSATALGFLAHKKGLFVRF
Briefly: peroxidase-linked spectrophotometric assay, crude rat liver mitochondria with MAO-A blocked by clorgyline. The class given is biochemical.

Structures are written as SMILES.

`C#CCN(C)Cc1ccccc1` [pargyline] returned an IC50 of 13.4 ± 0.16 nM.
